Measurements: US5503776A, “N-acylcarnosines and their use as antioxidants” (National Food Research Institute Ministry of Agriculture, …, priority 1991, dated 1996)
Peptide text beside a SMILES is read from it. * marks the point of attachment. Oleoyl = CCCCCCCC/C=C\CCCCCCCC(=O)*

Experiments:
[1] = Repression of the radical chain autoxidation reaction of methyl linoleate (HPLC of methyl linoleate hydroperoxide); conditions: hexane/isopropyl alcohol (1:1 v/v), 100 mM methyl linoleate, 10 mM 2,2'-azo-bis(2,4-dimethyl valeronitrile), 37° C.; FIG. 8-10
Description: The N-oleoyl-carnosine, N-caprinoyl-carnosine and N-oleoyl-carnosine methyl ester obtained respectively in Examples 1, 3 and 4 were tested for antioxidizing power in terms of repression of the radical chain autoxidation reaction of methyl linoleate. Hexane/isopropyl alcohol (1:1 v/v) containing 100 mM of methyl linoleate, 10 mM of an oil-soluble generating agent (2,2'-azo-bis(2,4-dimethyl valeronitrile)), and various concentration of N-oleoyl-carnosine, N-caprinoyl-carnosine or N-oleoyl-carnosine methyl ester was kept incubated at 37° C., sampled at intervals along the course of time, and analyzed by high-performance liquid chromatography to follow changes in the amount of methyl linoleate hydroperoxide to be formed.

[2] = Emulsifying power in soybean oil/phosphate buffer, turbidity of lower layer O.D. (500 nm); assay type: physicochemical; conditions: 0.2% in 50 mM phosphate buffer (pH 7), 30° C.; for Relative emulsifying activity (%): one half volume soybean oil, ultrasonic wave, relative to N-oleoyl-carnosine taken as 100; for emulsifying power (in words): oil-water system, soybean oil
Description: The N-oleoyl-carnosine and the N-oleoyl-histidine obtained respectively in Example 1 and Example 2 were tested for emulsifying power. The emulsifying power was determined by dissolving each N-acyl compound in a concentration of 0.2% in 50 mM of phosphate buffer solution (pH 7), combining the resultant solution with one half in volume of soybean oil, subjecting the resultant mixture to a treatment with ultrasonic wave at 30° C., allowing the treated mixture to stand at rest at 30° C. for a prescribed time, and measuring the turbidity of the lower layer consequently separated in the mixture in terms of O.D. (500 nm). […] The magnitudes of emulsifying power given in Table 1 represent relative numerical values of emulsifying power based on the emulsifying power of N-oleoyl-carnosine taken as 100.

[3] = Repression of the radical chain autoxidizing reaction of a multilayer liposome (ferrous sulfate/ascorbic acid, TBA reaction); conditions: 10 μM compound in liposome, 0.1 mM ferrous sulfate, 1 mM ascorbic acid, pH 7.4, 37° C.; FIG. 11
Description: The N-oleoyl-carnosine and the N-oleoyl-histidine obtained respectively in Example 1 and Example 2 were tested for antioxidizing power in terms of the repression of the radical chain autoxidizing reaction of a multilayer liposome. A multilayer liposome was formed of 4 mM of egg yolk phosphatidylcholine, 0.4 mM of egg yolk phosphatidylcholine hydroperoxide,and 10 μM of N-oleoylcarnosine or N-oleoyl-histidine by the use of 10 mM trishydrochloric acid buffer solution (pH 7.4). The multilayer liposome and 0.1 mM of ferrous sulfate and 1 mM of ascorbic acid added thereto were incubated at 37° C., sampled at intervals along the course of time, subjected to the TBA reaction to induce coloration of malondialdehyde resulting from the hydrolysis of lipid peroxide, and analyzed by high-performance liquid chromatography to follow changes in the amount of the hydrolyzate.

**Q.** With `CCCCCCCC/C=C\CCCCCCCC(=O)NCC(=O)NCC(=O)N[C@@H](Cc1c[nH]cn1)C(=O)O` [N-oleoyl glycylglycylhistidine] (Oleoyl-Gly-Gly-His-OH) as the molecule, how does the “antioxidizing power (formation of methyl linoleate hydroperoxide)” value [1] read?
**A.** have antioxidizing powers

**Q.** For `CCCCCCCCCC(=O)N[C@@H](Cc1c[nH]cn1)C(=O)O` [N-caprinoyl histidine], which “antioxidizing power (formation of methyl linoleate hydroperoxide)” value [1] is on record?
**A.** have antioxidizing powers

**Q.** For Casein, which “Relative emulsifying activity (%)” value [2] is on record?
**A.** 24.3%

**Q.** With `CCCCCCCC/C=C\CCCCCCCC(=O)NCCC(=O)N[C@@H](Cc1cnc[nH]1)C(=O)O` [N-oleoyl-carnosine] as the molecule, how does the “antioxidizing power (formation of methyl linoleate hydroperoxide)” value [1] read?
**A.** possessed of antioxidizing power

**Q.** And the “antioxidizing power (malondialdehyde from lipid peroxide)” value [3]?
**A.** possessed of antioxidizing power

**Q.** And the “Relative emulsifying activity (%)” value [2]?
**A.** 100%

**Q.** What about the “emulsifying power (in words)” value [2] of the same molecule?
**A.** possessed of outstanding emulsifying power

**Q.** With `CCCCCCCC/C=C\CCCCCCCC(=O)N[C@@H](Cc1c[nH]cn1)C(=O)N[C@@H](CC(C)C)C(=O)O` [N-oleoyl histidylleucine] (Oleoyl-His-Leu-OH) as the molecule, how does the “antioxidizing power (formation of methyl linoleate hydroperoxide)” value [1] read?
**A.** have antioxidizing powers

**Q.** For `CCCCCCCCCC(=O)NCCC(=O)NC(Cc1cnc[nH]1)C(=O)O` (centres unmarked) [N-caprinoyl-carnosine, N-Caprinoyl carnosine], which “antioxidizing power (formation of methyl linoleate hydroperoxide)” value [1] is on record?
**A.** possessed of antioxidizing power

**Q.** Which results are given for `CCCCCCCC/C=C\CCCCCCCC(=O)N[C@@H](Cc1cnc[nH]1)C(=O)O` [N-oleoyl-His]?
**A.** antioxidizing power (formation of methyl linoleate hydroperoxide) [1]: have antioxidizing powers; antioxidizing power (malondialdehyde from lipid peroxide) [3]: possessed of antioxidizing power; Relative emulsifying activity (%) [2]: 82.1%; emulsifying power (in words) [2]: possessed of outstanding emulsifying power

**Q.** With `CCCCCCCC/C=C\CCCCCCCC(=O)NCCC(=O)N[C@@H](Cc1cnc[nH]1)C(=O)OC` [N-oleoyl-carnosine methyl ester, N-Oleoyl carnosine methyl ester] as the molecule, how does the “antioxidizing power (formation of methyl linoleate hydroperoxide)” value [1] read?
**A.** possessed of antioxidizing power
